Test results taken from patent US20210046139A1, “VEGETATION WATERS AND USES THEREOF” (FATTORIA LA VIALLA DI GIANNI, ANTONIO E BANDINO LO FRANCO - …, priority 2018, published 2021).

Experiments:
[1] = system: STZ diabetic rats; assay: Plasma glucose and glycated hemoglobin (HbA1c); format: in vivo, Sprague-Dawley rats; settings: for HbA1c / PLASMA GLUCOSE: 50 mg/kg/day, 5 weeks, mean ± S.E.
Excerpt: A well-established model of streptozotocin (STZ)-induced diabetes in rats was used. Streptozotocin is a glucosamine derivative of nitrosurea which selectively destroys the β cells of the pancreatic islets and causes the development of diabetes with hyperglycemia and glycosuria. The model shares a series of characteristics with human diabetic complications at both a functional level and a biochemical level, such as, for example, a reduced nervous conduction, loss of small-diameter sensory nerve fibers in the skin, reduction in Na+ and K+-ATPase activity and early alterations of the thermal and mechanical nociceptive thresholds. In this study, diabetes was induced in 24 rats with a single intraperitoneal injection of 60 mg/kg of STZ dissolved in a sodium citrate buffer (pH 4.5). 24 rats injected only with the vehicle were used as non-diabetic controls. Hyperglycemia was confirmed by measuring glycosuria 72 hours after the injection of STZ using Keto-Diabur strips (KD-5000; Roche Diagnostics Spa, Italy). Only the animals with glycosuria >5% were classified as diabetic and included in the study. […] The animals were then randomized to receive the concentrate of the invention at an HT equivalent dose of 50 mg/kg/day or 50 mg/kg/day of pure HT in drinking water, according to the following treatment groups: The daily dose of compounds was administered starting from the 7th week after the injection of STZ or the vehicle. The treatment lasted 5 weeks and urine samples were taken. The animals were then sacrificed and the plasma, kidneys and sciatic nerves were removed. The sacrifice took place within 2 hours after the last administration of the concentrate, HT or the vehicle. During the trial, the rats were weighed weekly to monitor their weight gain/loss. Hyperglycemia was confirmed in every rat by measuring the glucose level in the blood taken from the vein of the tail with a suitable apparatus (Glucomen, Menarini, Italy), 15 days after the injection of STZ. A plasma glucose level above 300 mg/dL was defined as the hyperglycemia threshold for defining the animals as diabetics. At the end of the 5-week treatment period, urine and plasma were collected to measure the level of triglycerides (TG), total cholesterol (TC), high-density lipoprotein (HDL) and other parameters using commercially available diagnostic kits.

[2] = system: STZ diabetic rats; assay: Motor and sensory nerve conduction velocity (tail, sciatic nerve); format: in vivo, Sprague-Dawley rats; settings: end of administration (week 12), mean ± S.E.; for Conduction of sciatic nerve: sciatic motor NCV; for Sensitivity of sciatic nerve: sciatic sensory NCV; for Conduction of tail: tail motor NCV; for Sensitivity of tail: tail sensory NCV
Excerpt: A well-established model of streptozotocin (STZ)-induced diabetes in rats was used. Streptozotocin is a glucosamine derivative of nitrosurea which selectively destroys the β cells of the pancreatic islets and causes the development of diabetes with hyperglycemia and glycosuria. The model shares a series of characteristics with human diabetic complications at both a functional level and a biochemical level, such as, for example, a reduced nervous conduction, loss of small-diameter sensory nerve fibers in the skin, reduction in Na+ and K+-ATPase activity and early alterations of the thermal and mechanical nociceptive thresholds. In this study, diabetes was induced in 24 rats with a single intraperitoneal injection of 60 mg/kg of STZ dissolved in a sodium citrate buffer (pH 4.5). 24 rats injected only with the vehicle were used as non-diabetic controls. Hyperglycemia was confirmed by measuring glycosuria 72 hours after the injection of STZ using Keto-Diabur strips (KD-5000; Roche Diagnostics Spa, Italy). Only the animals with glycosuria >5% were classified as diabetic and included in the study. […] The animals were then randomized to receive the concentrate of the invention at an HT equivalent dose of 50 mg/kg/day or 50 mg/kg/day of pure HT in drinking water, according to the following treatment groups: The electrophysiological studies were performed using a portable electromyograph (Alpine Biomed ApS DK-2740, Denmark). The test on sciatic nerve conduction was performed by stimulating the sciatic nerve in the Achilles tendons and in the hollow above the sciatic nerve at the point of attachment of the tail with a single 2.2 ms supramaximal pulse using a bipolar electrode. A measurement of the motor action potential (CMAP) was obtained by placing the active electrode in subcutaneous tissue, in the first interosseous muscle of a toe of the hind paw, and the reference electrode in the fourth interosseous muscle of the same paw. The motor conduction velocity was calculated by subtracting the distal value from the proximal value taking the latency of the first negative peak of the proximal CMAP, measured in milliseconds, and the difference was […] the distance between the two stimulating electrodes, measured in millimeters. The sensory conduction velocity was determined using the plantar nerve. The sensory nerve action potential (SNAP) of the plantar nerve was measured by placing the recording electrode (needle) in subcutaneous tissue at the level of the […] next to the medial malleolus and the reference electrode proximally at about 1 cm. Circular stimulation electrodes were placed in the middle of the three middle toes of the hind paw, and stimulation was performed with a square pulse wave lasting 0.05 ms, with a barely supramaximal current intensity stimulus. The sensory conduction velocity was calculated by measuring the latency at the negative deviation of the peak potential and the distance between the stimulation electrode and the recording electrode. The motor and sensory conduction velocities are expressed as meters per second. The tail motor and sensory conduction test requires that the sensory nerve of the tail be stimulated by inserting the cathode 2 cm from the tip of the tail and the anode at 1 cm distally, using a square wave pulse lasting 0.05-ms at a supramaximal intensity. The SNAPs were recorded by inserting the active electrode 5 cm from the cathode and the reference electrode at 1 cm more proximally. The sensory nerve conduction velocity was calculated by measuring the latency at the peak of the first negative deflection and the distance between the stimulating and recording electrodes. The tail motor nerve conduction was obtained using a bipolar recording configuration. The active electrode was positioned 2 cm from the tip of the tail and the reference electrode at 1 cm distally. The motor nerve of the tail was initially stimulated at 5 cm proximally from the active recording electrode and, subsequently, proximally at 10 cm. […]

[3] = non-diabetic control rats (CTRL)

For `OCCc1ccc(O)c(O)c1` [HT, hydroxytyrosol], which “reduction in HbA1c (glycated hemoglobin)” value ([1]; STZ diabetic rats vs. untreated diabetic rats) is on record?
The value was 20%.

And the HbA1c ([1]; STZ diabetic rats)?
The HbA1c was 52.3 ± 5.3 mM/mol.

And the “PLASMA GLUCOSE” value ([1]; STZ diabetic rats)?
The value was 729.6 ± 36.5 mg/dL.

And the HbA1c [1, 3]?
Its HbA1c is 16.7 ± 0.2 mM/mol.

What about the “PLASMA GLUCOSE” value [1, 3] of the same molecule?
Its value is 186.1 ± 3.2 mg/dL.

And the “Conduction of sciatic nerve” value ([2]; STZ diabetic rats)?
The value was 40.3 ± 0.7 m/sec.

What about the “Conduction of sciatic nerve” value [2, 3] of the same molecule?
The value was 46.5 ± 1.5 m/sec.

And the “Sensitivity of sciatic nerve” value ([2]; STZ diabetic rats)?
Its value is 33.7 ± 0.9 m/sec.

And the “Sensitivity of sciatic nerve” value [2, 3]?
Its value is 39.0 ± 0.9 m/sec.

And the Conduction of tail ([2]; STZ diabetic rats)?
The Conduction of tail was 37.4 ± 0.9 m/sec.

And the Conduction of tail [2, 3]?
The Conduction of tail was 36.1 ± 1.7 m/sec.

What about the Sensitivity of tail ([2]; STZ diabetic rats) of the same molecule?
The Sensitivity of tail was 30.8 ± 0.8 m/sec.

What about the Sensitivity of tail [2, 3] of the same molecule?
The Sensitivity of tail was 34.7 ± 1.3 m/sec.
